Broadly, the inhibition is the drop in the measured response relative to a control, in per cent. Higher therefore signals a response far below the control. Usually IC50 stands for the concentration needed to halve the response being measured. Read a high IC50 as weaker potency in that assay.

For one assay, the system named is Thromboxane-A synthase (Oryctolagus cuniculus).
Assay: not given
The following applies: at 100 µM.
`c1cscn1` displayed an inhibition of 17.3%.
The same measure, in the same setting: in the case of `c1ccnnc1` it was 16.8%; in that of `c1ncncn1`, 11%; in that of `c1cn[nH]c1`, 8.9%.

For another assay, the target named is T1, Thromboxane-A synthase (Homo sapiens) (UniProt P24557).
T1 sequence (whole entry): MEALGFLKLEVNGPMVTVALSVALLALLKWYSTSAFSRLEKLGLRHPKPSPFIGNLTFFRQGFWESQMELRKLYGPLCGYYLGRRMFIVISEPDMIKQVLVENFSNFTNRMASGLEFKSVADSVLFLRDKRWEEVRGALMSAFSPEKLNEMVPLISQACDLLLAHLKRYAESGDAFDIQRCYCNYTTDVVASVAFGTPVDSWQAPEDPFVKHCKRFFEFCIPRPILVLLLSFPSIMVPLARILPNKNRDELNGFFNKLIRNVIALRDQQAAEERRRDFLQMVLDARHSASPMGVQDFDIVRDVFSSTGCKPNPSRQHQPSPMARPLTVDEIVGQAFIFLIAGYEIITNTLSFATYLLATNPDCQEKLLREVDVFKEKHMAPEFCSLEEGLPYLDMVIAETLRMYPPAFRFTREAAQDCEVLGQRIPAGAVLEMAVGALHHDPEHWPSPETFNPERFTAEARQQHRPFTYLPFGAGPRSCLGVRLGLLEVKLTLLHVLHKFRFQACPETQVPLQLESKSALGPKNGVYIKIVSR
Briefly: Inhibition of Thromboxane synthetase at 100 µM.
Settings: not given
As for `c1cncnc1`, the inhibition was 12%.

In the next assay the target is Thromboxane-A synthase (Oryctolagus cuniculus). Briefly: Inhibitory activity against Thromboxane synthetase.
Settings: not given
Regarding `O=C(O)/C(Br)=C/c1ccc(Cc2cccnc2)cc1`, the IC50 was 5 nM.
For `O=C(O)CCCCCCCc1cccnc1`, it took 76 nM to reach half-maximal inhibition (IC50).
The same measure, in the same setting: in the case of `O=C(O)/C=C/c1ccc(Cc2cccnc2)s1` it was 47 nM; in that of `O=C(O)CCCCCCc1ccncc1`, more than 1000 nM; in that of `O=C(O)CCCCCCc1cccnc1`, 68 nM.
The compound `O=C(O)CCCCc1cccnc1` displayed an IC50 of 500 nM.
As to `O=C(O)CCCCCn1ccnc1`, the 50% inhibitory concentration (IC50) is more than 1000 nM.
On to `CC/C(=C\c1ccc(Cc2cccnc2)cc1)C(=O)O`, for which the midpoint of inhibition, the IC50, lay at 7 nM.
Turning to `O=C(O)CCCCCc1ccncc1`, the half-maximal inhibitory concentration (IC50) was more than 1000 nM.
The compound `C/C(=C\c1ccc(Cc2cccnc2)s1)C(=O)O` displayed an IC50 of 12 nM.
On to `O=C(O)/C=C/c1ccc(Cc2cccnc2)cc1`, for which inhibition was half-maximal at 10 nM (IC50).
On the same count and under the same terms, in the case of `C/C(=C\C(=O)O)c1ccc(Cc2cccnc2)c(C)c1` it was 18 nM; in that of `O=C(O)CCCCn1ccnc1`, more than 1000 nM.
In the case of `O=C(O)CCCCCc1cccnc1`, it took 86 nM to reach half-maximal inhibition (IC50).
Compound `C/C(=C/c1ccc(Cc2cccnc2)cc1)C(=O)O` gave an IC50 of 3 nM.
As to `C/C(=C\c1ccc(C(C)c2cccnc2)cc1)C(=O)O` (stereo not drawn), the half-maximal inhibitory concentration (IC50) came to 25 nM.
The same measure, in the same setting: with `C/C(=C\c1ccc(Cn2ccnc2)cc1)C(=O)O` the figure was 4 nM.
In turn, `O=C(O)CCCCCCCc1ccncc1` gave a 50% inhibitory concentration (IC50) of more than 1000 nM.
The compound `C/C(=C\c1ccc(Cc2ccncc2)cc1)C(=O)O` displayed an IC50 of more than 1000 nM.
On the same count and under the same terms, with `C/C(=C\C(=O)O)c1ccc(Cc2cccnc2)cc1` the figure was 56 nM.
The same measure, in the same setting: in the case of `CC(Cc1ccc(Cc2cccnc2)cc1)C(=O)O` (stereo not drawn) it was 20 nM.
On the same count and under the same terms, in the case of `O=C(O)CCc1ccc(Cc2cccnc2)cc1` it was 210 nM.
Regarding `O=C(O)CCCCc1ccncc1`, the concentration for half-maximal inhibition (IC50) is more than 1000 nM.
